Assays:
[1] = test system: CD1d reactive T cell hybridomas with an invariant Vα14i T cell antigen receptor α chain; test: 1.2 Hybridoma assay (IL-2 release by ELISA); assay type: cell-based, Mouse; conditions: for IL-2 release / IL-2 production: various concentrations, FIG. 13; for IL-2 secretion: CD1d coated plates, FIG. 8b
Description: As a measure of T cell activation, IL-2 release into the tissue culture medium was measured after 16 hours culture by an ELISA assay.
As a measure of T cell activation, IL-2 and IFN-γ release into the tissue culture medium was measured after 16 hours culture by an ELISA assay.

[2] = test system: Vα24i human NKT cell line; test: In vitro cytokine secretion assay using human NKT cell lines with CD14+ dendritic cells; assay type: cell-based
Description: (§1) Human NKT cell lines, expressing the Vα24i T cell receptor as well as CD161, were generated as follows: Anti-CD161 monoclonal antibodies, and anti-CD14 monoclonal antibodies, each coupled to magnetic beads (Miltenyi biotec, Auburn, Calif.), were used sequentially to isolate CD161^+ cells and CD14^+ cells from leukopaks. Immature dendritic cells were generated from the CD14^+ cells after a two-day incubation in the presence of 300 U/ml GM-CSF (R&D systems, Minneapolis, Minn.) and 100 U/ml IL-4 (R&D systems, Minneapolis, Minn.). Following irradiation with 2000 rads, the immature dendritic cells were co-cultured with syngeneic CD161′ cells in the presence of 100 ng/ml of alpha-galactosylceramide and 10 IU/ml of IL-2 (Invitrogen, Carlsbad Calif.) for 10 to 14 days. After stimulating the CD161^+ cells a second time with alpha-galactosylceramide-pulsed, irradiated immature dendritic cells, NKT cell lines were shown by flow cytometry to express both CD161^+ and V 24i TCR (99% purity).
IFN-γ and IL-4 secretion by the Vα 24i human NKT cell line was determined by ELISA (BD Pharmingen, San Diego, Calif.) after culture for 16 hours. […]
as §1, with “of 100-0.1” for “of 100”
IFN-γ secretion by the Vα 24i human NKT cell line was determined by ELISA (BD Pharmingen, San Diego, Calif.) after culture for 16 hours. […]

In the case of CCCCCCCCCCCCCC[C@@H](O)[C@@H](O)[C@H](COC1OC(CO)C(O)C(O)C1O)NC(=O)CCCCCc1ccccc1 (some centres unmarked) [Compound 83], the “IL-2 release / IL-2 production” value ([1]; CD1d transfected A20 cells) was “significant increase of IL-2 production”.
For CCCCCCCCCCCCCCCCCCCCCCCCCC(=O)N[C@@H](CO[C@H]1O[C@H](CO)[C@H](O)[C@H](O)[C@H]1O)[C@H](O)[C@H](O)CCCCCCCCCCCCCC [α-GalCer, α-Galactosylceramide, reference compound], the “IL-2 release from the hybridomas” value ([1]; 1 μg/ml, CD1d transfected A20 cells, FIG. 12) was “greatest amount of IL-2 release”, the IL-2 secretion [1] was “greater IL-2 secretion when compared to the galacturonic acid derivatives” and the IL-4 secretion ([2]; 10 μg/ml glycolipid (1-10 μg/ml for 3-O-sulfo-α-galactosylceramide), 10 IU/ml IL-2) was “greater IFN-γ and IL-4 secretion”. For the same compound, the IFN-γ secretion ([2]; 10 μg/ml glycolipid (1-10 μg/ml for 3-O-sulfo-α-galactosylceramide), 10 IU/ml IL-2, FIG. 9a) was “greater IFN-γ and IL-4 secretion”.
For CCCCCCCCCCCCCCC[C@@H](O)[C@H](COC1OC(CO)C(O)C(O)C1O)NC(=O)CCCCCCCCCCCCC (some centres unmarked) [Compound 7], the IL-2 secretion [1] was “greater IL-2 secretion when compared to the galacturonic acid derivatives”.
In the case of CCCCCCCCCCCCCCC[C@@H](O)[C@H](COC1OC(C(=O)O)C(O)C(O)C1O)NC(=O)CCCCCCCCCCCCC (some centres unmarked) [Compound 5], the “reactivity of human Vα24i NKT cells” value [2] was “conserved”.
In the case of CCCCCCCCCCCCCCC[C@@H](O)[C@H](COC1OC(CO)C(O)C(O)C1O)NC(=O)[C@@H](O)CCCCCCCCCCCC (some centres unmarked) [Compound 8], the IL-2 secretion [1] was “less able to activate IL-2 secretion when compared with 5”.
For CCCCCCCCCCCCCC[C@@H](O)[C@@H](O)[C@H](COC1OC(CO)C(O)C(O)C1O)NC(=O)CCCCCCCc1ccccc1 (some centres unmarked) [Compound 84], the “IL-2 release / IL-2 production” value ([1]; CD1d transfected A20 cells) was “significant increase of IL-2 production” and the interferon-γ secretion ([2]; 100-0.1 ng/mL, FIGS. 17 and 18) was “consistently stimulating greater IFN-γ secretion”.
With CCCCCCCCCCCCCCC[C@@H](O)[C@H](COC1OC(C(=O)O)C(O)C(O)C1O)NC(=O)[C@@H](O)CCCCCCCCCCCC (some centres unmarked) [Compound 6] the “reactivity of human Vα24i NKT cells” value [2] was “conserved”.
